Experimental data taken from patent US20090156594A1, “HETEROCYCLIC KINASE MODULATORS” (SGX Pharmaceuticals, Inc., priority 2007, published 2009).

Key:
c-MET = target: T1, c-MET (Homo sapiens, UniProt P08581); experiment: MET luminescence-based enzyme assay (Kinase-Glo); format: biochemical; conditions: MET kinase domain, 10 μM ATP, 60 min at 21° C.
T1 construct: expressing the kinase domain of human Met; 6x Histidine tag (TEV-cleavable) (cleaved yes); made in house; host or cells: Sf9 insect cells
T1 sequence (P08581 1078-1345 limits assumed): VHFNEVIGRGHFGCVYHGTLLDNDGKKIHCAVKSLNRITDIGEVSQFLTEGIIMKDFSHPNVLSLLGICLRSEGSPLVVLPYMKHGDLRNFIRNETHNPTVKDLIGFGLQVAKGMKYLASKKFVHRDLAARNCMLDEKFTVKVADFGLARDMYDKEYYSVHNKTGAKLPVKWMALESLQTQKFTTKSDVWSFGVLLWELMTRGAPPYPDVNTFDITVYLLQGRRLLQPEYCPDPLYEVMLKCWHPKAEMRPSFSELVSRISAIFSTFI
Description: Screening data was evaluated using the equation: Z′=1-[3*(σ++σ−)/|μ+−μ−|] […] The subscript designates positive or negative controls. The Z′ score for a robust screening assay should be ≧0.50. The typical threshold=μ+−3*σ+. Any value that falls below the threshold was designated a “hit”.
MET Luminescence-Based Enzyme Assay
MET kinase (see below), Kinase-Glom (Promega Cat#V6712).
(diluted 50 μl into total of 10 ml miliQH2O daily=50 μM ATP working stock); 1% BSA (1 g BSA in 100 ml 0.1M HEPES, pH 7.5, stored at −20° C.), 100 mM MgCl2; 200 μM Staurosporine, 2× Kinase-Glo™ reagent (made fresh or stored at −20° C.).
Standard Assay Setup for 384-well format (20 μl kinase reaction, 40 μl detection reaction): 10 mM MgCl2; 0.3 mg/mil poly Glu-Tyr; 0.1% BSA; 1 μl test compound (in DMSO); 0.4 μg/ml MET kinase; 10 μM ATP; 100 mM HEPES buffer. Positive controls contained DMSO with no test compound. Negative controls contained […] staurosporine. The kinase reactions were initiated at time t=0 by the addition of ATP. Kinase reactions were incubated at 21° C. for 60 min, then 20 μl of Kinase-Glo™ reagent were added to each well to quench the kinase reaction and initiate the luminescence reaction. After a 20 min incubation at 21° C., the luminescence was detected in a plate-reading luminometer.
The cell pellets produced from half of a 12 L Sf9 insect cell culture expressing the kinase domain of human Met were resuspended in a buffer containing 50 mM Tris-HCl pH 7.7 and 250 mM NaCl, in a volume of approximately 40 ml per 1 L of original culture. […] The suspension was stirred for 1 hour at 4° C. Debris was removed by centrifugation for 30 minutes at 39,800×g at 4° C. […] The sample was then poured into a drip column at 4° C. and washed with 10 column volumes of 50 mM Tris-HCl pH 7.8, 500 mM NaCl, 10% Glycerol, […], and 10 mM Methionine. The protein was eluted using a step gradient with two column volumes each of the same buffer containing 50 mM, 200 mM, and 500 mM Imidazole, sequentially. […] The step gradient was run with 15% and then 80% of the B-side (A-side=50 mM Tris-HCl pH 7.8, 500 mM NaCl, 10% Glycerol, 10 mM Imidazole, and 10 mM Methionine; B-side=50 mM Tris-HCl pH 7.8, […], 10% Glycerol, 500 mM Imidazole, and 10 mM Methionine) for 4 column volumes each.

GTL16 cells = experiment: 96-well XTT cell survival assay (GTL16 cells); format: cell-based; conditions: Homo sapiens, GTL 16, 72 hours
Description: GTL16 cells were maintained in DMEM Medium supplemented with 10% fetal bovine serum (FBS) 2 mM L-Glutamine and 100 units penicillin/100 μg streptomycin, at 37° C. in 5% CO2.
Compounds were Tested in the Following Assays in Duplicate.
96-well XTT assay (GTL16 cells): One day prior to assay the growth media was aspirated off and assay media was added to cells. On the day of the assay, the cells were grown in assay media containing various concentrations of compounds (duplicates) on a 96-well flat bottom plate for 72 hours at 37° C. in 5% CO2. The starting cell number was 5000 cells per well and volume was 120 μl. At the end of the 72-hour incubation, 40 μl of XTT labeling mixture (50:1 solution of sodium 3′-[1-(phenylaminocarbonyl)-3,4-tetrazolium]-bis(4-methoxy-6-nitro) benzene sulfonic acid hydrate and Electron-coupling reagent: PMS (N-methyl dibenzopyrazine methyl sulfate) were added to each well of the plate. After an additional 5 hours of incubation at 37° C., the absorbance reading at 450 nm with a background correction of 650 nm was measured with a spectrophotometer.

Work on `c1ccc(-c2nn3c(Cc4ccc5ncccc5c4)nnc3s2)cc1` yielded an IC50 (c-MET) of under 100 nM and an IC50 (GTL16 cells) of 1000 to 10000 nM.
`Cn1cc(-c2nn3c(Cc4cc5cccnc5cc4F)nnc3s2)cn1` showed an IC50 (c-MET) of under 100 nM and an IC50 (GTL16 cells) of at most 100 nM.
Compound `Cn1cc(-c2nn3c(Cc4c(F)cc5ncccc5c4F)nnc3s2)cn1` has an IC50 (c-MET) of under 100 nM and an IC50 (GTL16 cells) of at most 100 nM.
`Fc1cc2ncccc2cc1Cc1nnc2sc(C(F)(F)F)nn12` was tested, and the IC50 (c-MET) was 1000 to 10000 nM.
`c1ccc(-c2cn3c(Sc4ccc5ncccc5c4)nnc3s2)cc1` gave an IC50 (c-MET) of 100 to 1000 nM and an IC50 (GTL16 cells) of 1000 to 10000 nM.
Compound `Cc1nn2c(Cc3cc4cccnc4cc3F)nnc2s1` has an IC50 (c-MET) of 100 to 1000 nM and an IC50 (GTL16 cells) of 100 to 1000 nM.
`Fc1cc2ncccc2cc1Cc1nnc2sc(-c3ncc[nH]3)nn12` gave an IC50 (c-MET) of 100 to 1000 nM and an IC50 (GTL16 cells) of 1000 to 10000 nM.
With `Cc1nn2c(Cc3ccc4ncc(-c5cnn(C)c5)cc4c3)nnc2s1` the IC50 (c-MET) was under 100 nM and the IC50 (GTL16 cells) was at most 100 nM.
Compound `Cc1nn2c(Sc3ccc4ncccc4c3)nnc2s1` has an IC50 (c-MET) of 100 to 1000 nM.
For `Cn1cc(-c2cnc3ccc(Cc4nnc5sc(CNCC6CC6)nn45)cc3c2)cn1`, the IC50 (c-MET) was under 100 nM and the IC50 (GTL16 cells) was at most 100 nM.
`Cc1nn2c(Cc3ccc4ncc(-c5cnn(C)c5)cc4c3F)nnc2s1` showed an IC50 (c-MET) of under 100 nM and an IC50 (GTL16 cells) of at most 100 nM.
Compound `Cc1nn2c(Cc3c(F)cc4ncc(Br)cc4c3F)nnc2s1` has an IC50 (c-MET) of 100 to 1000 nM and an IC50 (GTL16 cells) of 100 to 1000 nM.
`Cc1nn2c(Sc3ccc4ncc(-c5cnn(C)c5)cc4c3)nnc2s1` gave an IC50 (c-MET) of under 100 nM and an IC50 (GTL16 cells) of at most 100 nM.
`Cn1cc(-c2cnc3ccc(Cc4nnc5sc([C@@H](N)CC6CCCCC6)nn45)cc3c2)cn1` was tested, and the IC50 (c-MET) was 100 to 1000 nM.
Compound `C[C@H](N)c1nn2c(Cc3ccc4ncc(-c5cnn(C)c5)cc4c3)nnc2s1` has an IC50 (c-MET) of 100 to 1000 nM.
In the case of `Cn1cc(-c2cnc3ccc(Cc4nnc5sc(C6CC6)nn45)cc3c2)cn1`, the IC50 (c-MET) is reported as under 100 nM and the IC50 (GTL16 cells) is reported as at most 100 nM.
Compound `Cn1cc(-c2cnc3ccc(Cc4nnc5sc([C@@H]6CCCN6)nn45)cc3c2)cn1` has an IC50 (c-MET) of 100 to 1000 nM.
`Cn1cc(-c2cnc3ccc(Cc4nnc5sc(CNCCF)nn45)cc3c2)cn1` gave an IC50 (c-MET) of under 100 nM and an IC50 (GTL16 cells) of at most 100 nM.
`Cn1cc(-c2cnc3ccc(Cc4nnc5sc(CNCCN6CCOCC6)nn45)cc3c2)cn1` gave an IC50 (c-MET) of under 100 nM and an IC50 (GTL16 cells) of 100 to 1000 nM.
For `CCc1nn2c(Cc3ccc4ncc(-c5cnn(C)c5)cc4c3)nnc2s1`, the IC50 (c-MET) was under 100 nM and the IC50 (GTL16 cells) was at most 100 nM.
Work on `CNCc1nn2c(Cc3ccc4ncc(-c5cnn(C)c5)cc4c3)nnc2s1` yielded an IC50 (c-MET) of under 100 nM and an IC50 (GTL16 cells) of at most 100 nM.
`Brc1cnc2ccc(Cc3nnc4sc(CN5CCCC5)nn34)cc2c1` showed an IC50 (c-MET) of 100 to 1000 nM.
With `CCc1nn2c(Sc3ccc4ncc(-c5cnn(C)c5)cc4c3)nnc2s1` the IC50 (c-MET) was under 100 nM and the IC50 (GTL16 cells) was 100 to 1000 nM.
Compound `COCc1nn2c(Cc3ccc4ncc(-c5cnn(C)c5)cc4c3)nnc2s1` has an IC50 (c-MET) of under 100 nM and an IC50 (GTL16 cells) of at most 100 nM.
In the case of `CN(C)Cc1nn2c(Cc3ccc4ncc(-c5cnn(C)c5)cc4c3)nnc2s1`, the IC50 (c-MET) is reported as under 100 nM and the IC50 (GTL16 cells) is reported as at most 100 nM.
`Cn1cc(-c2cnc3ccc(Cc4nnc5sc(CNC6CC6)nn45)cc3c2)cn1` gave an IC50 (c-MET) of under 100 nM and an IC50 (GTL16 cells) of at most 100 nM.
With `CC(C)NCc1nn2c(Cc3ccc4ncc(-c5cnn(C)c5)cc4c3)nnc2s1` the IC50 (c-MET) was under 100 nM and the IC50 (GTL16 cells) was at most 100 nM.
`Cn1cc(-c2cnc3ccc(Cc4nnc5sc(CNCCO)nn45)cc3c2)cn1` was tested, and the IC50 (c-MET) was under 100 nM and the IC50 (GTL16 cells) was 100 to 1000 nM.
For `C[C@@H](O)[C@@H](N)c1nn2c(Cc3ccc4ncc(-c5cnn(C)c5)cc4c3)nnc2s1`, the IC50 (c-MET) was 1000 to 10000 nM.
For `C[C@@H](N)c1nn2c(Cc3ccc4ncc(-c5cnn(C)c5)cc4c3)nnc2s1`, the IC50 (c-MET) was under 100 nM and the IC50 (GTL16 cells) was 100 to 1000 nM.
`Cn1cc(-c2cnc3ccc(Cc4nnc5sc(C(N)Cc6cncn6C)nn45)cc3c2)cn1` (stereo not shown) gave an IC50 (c-MET) of 100 to 1000 nM.
`CN[C@H](C)c1nn2c(Cc3ccc4ncc(-c5cnn(C)c5)cc4c3)nnc2s1` gave an IC50 (c-MET) of 100 to 1000 nM and an IC50 (GTL16 cells) of 100 to 1000 nM.
`Cn1cc(-c2cnc3ccc(Cc4nnc5sc([C@H](N)CC6CCCCC6)nn45)cc3c2)cn1` gave an IC50 (c-MET) of under 100 nM and an IC50 (GTL16 cells) of 100 to 1000 nM.
Work on `Cn1cc(-c2cnc3ccc(Cc4nnc5sc(C6CCC6)nn45)cc3c2)cn1` yielded an IC50 (c-MET) of under 100 nM and an IC50 (GTL16 cells) of at most 100 nM.
In the case of `Cn1cc(-c2cnc3ccc(Cc4nnc5sc(CNCC(F)(F)F)nn45)cc3c2)cn1`, the IC50 (c-MET) is reported as under 100 nM and the IC50 (GTL16 cells) is reported as at most 100 nM.
Compound `CCNCc1nn2c(Cc3ccc4ncc(-c5cnn(C)c5)cc4c3)nnc2s1` has an IC50 (c-MET) of under 100 nM and an IC50 (GTL16 cells) of 100 to 1000 nM.
Compound `Cn1cc(-c2cnc3ccc(Cc4nnc5sc([C@@H](N)CC6CC6)nn45)cc3c2)cn1` has an IC50 (c-MET) of under 100 nM.
Compound `CS(=O)(=O)c1cccc(-c2cnc3nnc(Cc4ccc5ncccc5c4)n3c2)c1` has an IC50 (c-MET) of over 10000 nM.
`NCc1ccc(-c2cnc3nnc(Cc4ccc5ncccc5c4)n3c2)cc1` was tested, and the IC50 (c-MET) was over 10000 nM.
`Cc1nn2c(Cc3c(F)cc4ncc(-c5cnn(C)c5)cc4c3F)nnc2s1` showed an IC50 (c-MET) of under 100 nM and an IC50 (GTL16 cells) of at most 100 nM.
In the case of `COCCc1nn2c(Sc3ccc4ncc(-c5cnn(C)c5)cc4c3)nnc2s1`, the IC50 (c-MET) is reported as under 100 nM and the IC50 (GTL16 cells) is reported as at most 100 nM.
`CN(C)Cc1nn2c(Cc3c(F)cc4ncc(Br)cc4c3F)nnc2s1` was tested, and the IC50 (c-MET) was 1000 to 10000 nM.
In the case of `OCc1nn2c(Cc3ccc4ncc(Br)cc4c3)nnc2s1`, the IC50 (c-MET) is reported as over 10000 nM.
For `Cn1cc(-c2cnc3ccc(Cc4nnc5nccnn45)cc3c2)cn1` [3-(1-Methyl-1H-pyrazol-4-yl)-6-[1,2,4]triazolo[4,3-b][1,2,4]triazin-3-ylmethyl-quinoline], the IC50 (c-MET) was under 100 nM and the IC50 (GTL16 cells) was at most 100 nM.
Compound `c1ccc(-c2cn3c(Cc4ccc5ncccc5c4)nnc3s2)cc1` [6-(6-Phenyl-thiazolo[2,3-c][1,2,4]triazol-3-ylmethyl)-quinoline] has an IC50 (c-MET) of 1000 to 10000 nM.
`Cn1cc(-c2nn3c(Cc4ccc5ncccc5c4)cnc3s2)cn1` [6-[2-(1-methyl-1H-pyrazol-4-yl)-imidazo[2,1-b][1,3,4]thiadiazol-5-ylmethyl]-quinoline] was tested, and the IC50 (c-MET) was under 100 nM and the IC50 (GTL16 cells) was 100 to 1000 nM.
`Cn1cc(-c2nn3c(Cc4ccc5ncccc5c4)nnc3s2)cn1` [6-[6-(1-Methyl-1H-pyrazol-4-yl)-[1,2,4]triazolo[3,4-b][1,3,4]thiadiazol-3-ylmethyl]-quinoline] was tested, and the IC50 (GTL16 cells) was 100 to 1000 nM.
`Cn1cc(-c2nn3c(Sc4ccc5ncccc5c4)nnc3s2)cn1` [6-[6-(1-Methyl-1H-pyrazol-4-yl)-[1,2,4]triazolo[3,4-b][1,3,4]thiadiazol-3-ylsulfanyl]-quinoline] gave an IC50 (c-MET) of under 100 nM and an IC50 (GTL16 cells) of 100 to 1000 nM.
`c1cnc2ccc(Cc3nnc4sc(NC5CC5)nn34)cc2c1` [cyclopropyl-(3-quinolin-6-ylmethyl-[1,2,4]triazolo[3,4-b][1,3,4]thiadiazol-6-yl)-amine] showed an IC50 (c-MET) of under 100 nM and an IC50 (GTL16 cells) of at most 100 nM.
Work on `Cn1cc(-c2cnc3ccc(Cc4nnc5sc(-c6cccnc6)nn45)cc3c2)cn1` [drawing 184] yielded an IC50 (GTL16 cells) of at most 100 nM.
`Cn1cc(-c2cnc3ccc(Cc4nnc5sc(-c6cccnc6)nn45)cc3c2)cn1` [drawing 217] gave an IC50 (c-MET) of under 100 nM.
